Experimental data: patent US7973219B2, “Method for producing transgenic plants resistant to weed control compounds which disrupt the porphyrin pathways of plants” (Sumitomo Chemical Company, Limited, priority 1998, dated 2011)
Where two headings read alike, the source gives them in different places.

Experiments:
Type in all cases: in vivo
[1] = tested on: control recombinant tobacco; assay: Leaf piece chlorophyll test, control recombinant tobacco; conditions: control recombinant tobacco; for activity at 0.3 ppm: Nicotiana tabacum, read-out: Resistant level to test compound
Protocol: Then, according to the method described in Manual for Gene Manipulation of Plant (by Hirofumi UCHIMIYA, Kodan-sha Scientific, 1992), the gene was introduced into tobacco. Agrobacterium strain bearing plasmid pBIBCH was cultured at 28° C. overnight in LB medium and then leaf pieces of tobacco cultured sterilely were dipped in the liquid culture medium. The leaf pieces were cultured at room temperature for 2 days in Murashige-Skoog medium (MS-medium, described in Murasige T. and Skoog F., Physiol. Plant. (1962) 15, p 473) containing 0.8% agar, 0.1 mg/liter naphthalene acetic acid and 1.0 mg/liter benzyl aminopurine. Then, the leaf pieces were washed with sterilized water and cultured for 7 days on MS medium containing 0.8% agar, 0.1 mg/liter naphthalene acetic acid, 1.0 mg/liter benzyl aminopurine and 500 μg/ml cefotaxime. The leaf pieces were transplanted onto MS medium containing 0.8% agar, 0.1 mg/liter naphthalene acetic acid, 1.0 mg/liter benzyl aminopurine, 500 μg/ml cefotaxime and 100 μg/ml kanamycin (hereinafter referred to as selective MS medium) and cultured on the medium continuously for 4months with transplanting the tobacco leaf pieces onto fresh selective MS medium every 1 month. During culture, stem-leaf differentiated shoots were appeared from the tobacco leaf pieces, these shoots were transplanted to MS medium containing 0.8% agar, 300 μg/ml cefotaxime and 50 μg/ml kanamycin to induce roots to obtain regenerated plants. The resultant regenerated plant was transplanted and cultured on MS medium 0.8% agar and 50 μg/ml kanamycin to obtain tobacco plant into which bchH gene was introduced. Similarly, tobacco leaf pieces were infected with Agrobacterium strain bearing pNO to obtain regenerated plant from the tobacco leaf pieces and tobacco plant (hereinafter referred to as control recombinant tobacco).
(§1) The tobacco leaves into which bchH gene was introduced and control recombinant tobacco leaves obtained in Example 5 were collected and each leaf was divided into the right and left equivalent pieces along the main vein, respectively. To one piece was applied an aqueous solution containing 0.3 ppm PPO inhibitory-type herbicidal compound of Structure 8, while, to the other piece was not applied the compound. These leaf pieces were placed on MS medium containing 0.8% agar and allowed to stand at room temperature for 7 days in light place. Then, each leaf piece was ground with pestle and mortar in 5 ml of 80% aqueous acetone solution to extract chlorophyll. The extract liquid was diluted with 80% aqueous acetone solution and the absorbance was measured at 750 nm, 663 nm and 645 nm to calculate total chlorophyll content according to the method described by Macknney G., J. Biol. Chem. (1941) 140, p 315. The results obtained from 4 clones of tobacco into which bchH gene was introduced (BCH1 to 4) and control recombinant tobacco is shown in Table 4. In the table, the resistant level to the herbicidal compound was represented by percentages of the total chlorophyll content of leaf pieces treated with herbicidal compound to that of untreated leaf pieces.
The tobacco clone into which bchH gene was introduced and control recombinant tobacco were also treated in the same manner with the solution containing PPO inhibitory-type herbicidal compound represented by the above Structure 3, 7, 10, 11, 13, 17, 23, 24, 25, 27, 28, 30 or 35, and the resistant level to each herbicidal compound was measured. In the table, the resistant levels to the herbicidal compound were represented by percentages of the total chlorophyll content of leaf pieces treated with the herbicidal compound to that of untreated leaf pieces.
The level of resistance to PPO inhibitory type herbicidal compound represented by Structure 8 was confirmed quantitatively by testing tobacco into which the gene encoding the variant soybean PPO prepared in Example 13 was introduced according to the same manner as in Example 6. […]

[2] = tested on: tobacco introduced with the gene encoding the variant soybean PPO; assay: Leaf piece chlorophyll test, tobacco with gene encoding variant soybean PPO; conditions: Table 8; for Resistant level to test compound: same manner as Example 6 (0.3 ppm), treated vs untreated leaf pieces; for Total chlorophyll content treated-leaf: same manner as Example 6 (0.3 ppm, 7 days in light)
Excerpt: as §1
Leaf pieces of tobacco cultured sterilely were infected with the Agrobacterium strain and, according to the same manner as in Example 5, tobacco into which the gene encoding the variant soybean PPO was introduced was obtained.
The level of resistance to PPO inhibitory type herbicidal compound represented by Structure 8 was confirmed quantitatively by testing tobacco into which the gene encoding the variant soybean PPO prepared in Example 13 was introduced according to the same manner as in Example 6. The results obtained from 4 clones (GMP 1-4) of tobacco introduced with the gene encoding the variant soybean PPO and control recombinant tobacco are shown in Table 8. In the table, the resistant level to herbicidal compound is represented by percentage of the total chlorophyll content of leaf pieces treated with the herbicidal compound to that of untreated leaf pieces.

[3] = tested on: tobacco bearing introduced both Arabidopsis thaliana PPO(A220V) gene and gene encoding the variant tobacco chelatase subunit; assay: Leaf piece chlorophyll test, tobacco with PPO(A220V) gene and variant tobacco chelatase subunit gene; conditions: 2.0 ppm, 7 days in a light place, Example 37
Excerpt: Tobacco leaf pieces cultured sterilely were infected with the Agrobacterium strain and, according to the same manner as in Example 5, tobacco bearing the introduced both Arabidopsis thaliana PPO(A220V) gene and gene encoding the variant tobacco chelatase subunit was obtained.
Leaves of the tobacco bearing the introduced both Arabidopsis thaliana PPO(A220V) gene and gene encoding the variant tobacco chelatase subunit produced in Example 36, those bearing the introduced Arabidopsis thaliana PPO(A220V) gene produced in Example 35, and the control recombinant tobacco leaves produced in Example 5were collected, and each leaf was divided into the right and left equivalent pieces along the main vein. One of the pieces was treated with an aqueous solution containing 2.0 ppm PPO inhibitory-type herbicidal compound of Structure 8, while the other piece was not treated with the compound. These leaf pieces were placed on MS medium containing 0.8% agar and allowed to stand at room temperature for 7 days in a light place. Then, each leaf piece was ground in 5 ml of 80% aqueous acetone solution in a mortar with a pestle to extract chlorophyll. The extract was diluted 10 times with 80% aqueous acetone solution and the absorbance was measured at 750 nm, 663 nm and 645 nm to calculate the total chlorophyll content according to the method described by Macknney G., J. Biol. Chem. (1941) 140, p 315. […]

`C#CCOc1cc(N2C(=O)C3=C(CCCC3)C2=O)c(F)cc1Cl` [Structure 8] showed an activity at 0.3 ppm ([1]; 168 h, 0.3 ppm, 7 days in light, chlorophyll of treated vs untreated leaf pieces, Table 4) of 7.63%, an activity at 0.3 ppm ([1]; same manner as Example 6 (0.3 ppm), treated vs untreated leaf pieces, Table 8) of 10% and an activity at 0.3 ppm ([1]; same manner as Example 6 (0.3 ppm), treated vs untreated leaf pieces, Table 10) of 18.4%. The activity at 0.3 ppm ([1]; same manner as Example 6 (0.3 ppm), treated vs untreated leaf pieces, Table 12) was 8.29%, the “Total chlorophyll content treated-leaf” value ([1]; 0.3 ppm, leaf pieces 7 days in light place, Table 4) was 0.19 mg/g-fresh weight and the resistant level ([1]; 2.0 ppm, 7 days in a light place, chlorophyll of treated vs untreated leaf pieces, Example 37) was 2.88%. For the same compound, the “Total chlorophyll content treated-leaf” value ([1]; same manner as Example 6 (0.3 ppm, 7 days in light), Table 8) was 0.35 mg/g-fresh weight, the “Total chlorophyll content treated-leaf” value ([1]; same manner as Example 6 (0.3 ppm, 7 days in light), Table 10) was 0.42 mg/g-fresh weight and the “Total chlorophyll content treated-leaf” value ([1]; same manner as Example 6 (0.3 ppm, 7 days in light), Table 12) was 0.160 mg/g-fresh weight. For the same compound, the “Resistant level to test compound” value ([2]; clone GMP-1) was 135%, the “Total chlorophyll content treated-leaf” value ([2]; clone GMP-1) was 2.55 mg/g-fresh weight and the “Resistant level to test compound” value ([2]; clone GMP-2) was 108%. For the same compound, the “Total chlorophyll content treated-leaf” value ([2]; clone GMP-2) was 0.96 mg/g-fresh weight, the “Resistant level to test compound” value ([2]; clone GMP-3) was 99.3% and the “Total chlorophyll content treated-leaf” value ([2]; clone GMP-3) was 1.49 mg/g-fresh weight. For the same compound, the “Resistant level to test compound” value ([2]; clone GMP-4) was 80.4%, the “Total chlorophyll content treated-leaf” value ([2]; clone GMP-4) was 2.34 mg/g-fresh weight and the resistant level [3] was 61.6%.
